# Paper PMC5589090 (PLoS Medicine, 2017)
# Where “and” joins values, the source holds several entries; their conditions need not be identical. Identical values can stand only once. Like-named read-outs stand apart in the source and are kept apart here.
# Columns and labels:
# [1] = tested on: LINE-1 repetitive element CpG; experiment: Methylation level of LINE-1 repetitive element CpG by pyrosequencing in PBMC; format: in vivo, human
# Procedure: DNA was purified from peripheral blood mononuclear cells (isolated by Ficoll-Hypaque density centrifugation) using the Wizard Genomic DNA Purification Kit (Promega). DNA was bisulfite-converted using EZ DNA Lightning Methylation kit (Zymo Research). The PCR primers were 10 pmol of 5′- […]-3′ and 10 pmol of biotinylated-5′-[…]-3′. PCR cycling conditions were: cycle temperature of 94°C for 30 seconds, 60°C for 30 seconds, and 72°C for 30 seconds, for 45 cycles to consume all the biotinylated primers. The biotinylated strand was captured on streptavidin sepharose beads (Amersham Biosciences, Uppsala, Sweden) and annealed with the sequencing primer 5′-[…]-3′. The methylation degree of long interspersed nuclear elements (LINE-1) was computed at 3 CpG sites pyrosequenced with the Pyromark Q24 Pyrosequencer (Qiagen) using the dispensation order […].
# [2] = tested on: Friend erythroleukemia cells; parameters: method as in ref 48 (a number printed in a supplementary file, which may have a reference list of its own: not looked up in the article's list); settings: single exposure 0.4 µM; cited from earlier work
# [3] = human, po, 0.01 mg/kg
# Procedure: To ensure safety in case of this possibility, decitabine pharmacokinetics are measured after single dose oral administration of decitabine and THU.
# [4] = cited from earlier work
# [5] = Blood counts, clinical pathology (total hemoglobin, reticulocytes, platelets, ANC, ALC, WBC); format: in vivo, human; settings: cohorts 4 and 5, while total hemoglobin increased
# From the text: Blood counts, blood chemistries, total bilirubin, HbF, LDH, and D-dimer levels were standard clinical pathology tests through the CLIA-certified Clinical Pathology Laboratory at the University of Illinois at Chicago.
# DNMT1 = target: T1, DNMT1 (Homo sapiens, UniProt P26358); experiment: DNMT1 protein measurement by flow cytometry of peripheral blood mononuclear cells; format: in vivo
# T1 construct: DNMT1 protein levels were measured by flow cytometric analysis of peripheral blood mononuclear cells; endogenous in cells; host or cells: peripheral blood mononuclear cells of sickle cell disease patients (ex vivo, after in vivo dosing)
# Procedure: Phlebotomized whole blood was layered over Histopaque. The interface was collected and washed with phosphate-buffered saline (PBS). Cell suspensions of approximately 200,000 cells were fixed with 4% paraformaldehyde for 30 minutes on ice. Cells were spun down, washed in PBS, and suspended in 70% ethanol and stored at −20°C for subsequent batched analyses. […] All procedures were performed on ice and all centrifugations were done at 400 g for 5 minutes at 4°C. The pellet was hydrated overnight in 1 ml sterile, distilled water to partially reverse the alcohol fixation. After incubation, samples were centrifuged and then resuspended in 1 ml PBS/2% bovine serum albumin (BSA) and incubated for 30 minutes to block nonspecific antibody binding. Following centrifugation, unlabeled anti-DNMT1 antibody [EPR 3522] […] Samples were washed 3 times: each wash was a 10-minute incubation with 1 ml PBS/2% BSA followed by centrifugation. After the third wash, CD64-Alexa Fluor 488 (5 μl/test; BioLegend; catalog no. 305010), Cyclin A2-PE (4μl/test; Beckman Coulter; catalog no. B15092), CD33-APC/Cy7 (5 μl/test; BioLegend; catalog no. 366614), and F(ab′)2-goat anti-rabbit IgG (H+L) Alexa Fluor 647 (0.0938 μg/test; Life Technologies; catalog no. A21246) were added in a final volume of 100 μl and incubated for 1 hour. After the incubation and without washing, 3.5 ml PBS containing 0.5 μg/ml DAPI was added to each sample. All samples were analyzed on an Attune NxT Acoustic Focusing Cytometer (Life Technologies) at a flow rate of 500 μl per minute. Compensation was performed with CompBeads Set Anti-Mouse Ig, κ (BD Biosciences; catalog no. 552843) and Flow Cytometry Protein G Antibody Binding Beads (Bangs Laboratories, Inc.; catalog no. 554/11863).
# Data were normalized to the instrument using 8-peak SPHERO Rainbow Calibration Particles (Spherotech; catalog no. RCP-30-5A). WinList 3D v8.0 (Verity Software House) was used for post-acquisition analysis. Doublet discrimination was performed using the DAPI area and peak signals. […]
# [6] = cited from earlier work; remark: listed apart in the source
# testicular cancer = tested on: testicular cancer; parameters: method as in ref 92 (a number printed in a supplementary file, which may have a reference list of its own: not looked up in the article's list); settings: 20% incidence in controls; cited from earlier work
# [7] = cited from earlier work; for Cmax: read-out: decitabine Cmax
# [8] = parameters: method as in ref 99 (a number printed in a supplementary file, which may have a reference list of its own: not looked up in the article's list); settings: cited from earlier work
# [9] = cited from earlier work; remark: listed apart in the source
# HbF = HbF levels by HPLC; format: in vivo, human
# From the text: Blood counts, blood chemistries, total bilirubin, HbF, LDH, and D-dimer levels were standard clinical pathology tests through the CLIA-certified Clinical Pathology Laboratory at the University of Illinois at Chicago. […] For quantification of F-cells by flow cytometry, peripheral blood samples were fixed and stained with phycoerythrin-conjugated anti-HbF (Caltag) per manufacturer’s instructions. A normal adult negative control and cord blood positive control were run with each Becton-Dickinson FacsCalibur (Sunnyvale, CA) analysis.
# tumor cell lines = tested on: tumor cell lines; parameters: method as in ref 83 (a number printed in a supplementary file, which may have a reference list of its own: not looked up in the article's list); settings: of 25 940 genes analyzed; cited from earlier work
# [10] = ref Investigators Brochure, cited from earlier work
# thyroid carcinoma = tested on: thyroid carcinoma; parameters: method as in ref 95 (a number printed in a supplementary file, which may have a reference list of its own: not looked up in the article's list); settings: cited from earlier work
# [11] = per patient, SC 0.2 mg/kg 2x/week, 0.2 mg/kg
# [12] = Table B1, baseline before treatment, per subject, r10 Mean ±SD
# [13] = Table B1, last 20 of 36 weeks of treatment, per subject, r10 Mean ±SD
# T1 sequence (P26358 whole entry): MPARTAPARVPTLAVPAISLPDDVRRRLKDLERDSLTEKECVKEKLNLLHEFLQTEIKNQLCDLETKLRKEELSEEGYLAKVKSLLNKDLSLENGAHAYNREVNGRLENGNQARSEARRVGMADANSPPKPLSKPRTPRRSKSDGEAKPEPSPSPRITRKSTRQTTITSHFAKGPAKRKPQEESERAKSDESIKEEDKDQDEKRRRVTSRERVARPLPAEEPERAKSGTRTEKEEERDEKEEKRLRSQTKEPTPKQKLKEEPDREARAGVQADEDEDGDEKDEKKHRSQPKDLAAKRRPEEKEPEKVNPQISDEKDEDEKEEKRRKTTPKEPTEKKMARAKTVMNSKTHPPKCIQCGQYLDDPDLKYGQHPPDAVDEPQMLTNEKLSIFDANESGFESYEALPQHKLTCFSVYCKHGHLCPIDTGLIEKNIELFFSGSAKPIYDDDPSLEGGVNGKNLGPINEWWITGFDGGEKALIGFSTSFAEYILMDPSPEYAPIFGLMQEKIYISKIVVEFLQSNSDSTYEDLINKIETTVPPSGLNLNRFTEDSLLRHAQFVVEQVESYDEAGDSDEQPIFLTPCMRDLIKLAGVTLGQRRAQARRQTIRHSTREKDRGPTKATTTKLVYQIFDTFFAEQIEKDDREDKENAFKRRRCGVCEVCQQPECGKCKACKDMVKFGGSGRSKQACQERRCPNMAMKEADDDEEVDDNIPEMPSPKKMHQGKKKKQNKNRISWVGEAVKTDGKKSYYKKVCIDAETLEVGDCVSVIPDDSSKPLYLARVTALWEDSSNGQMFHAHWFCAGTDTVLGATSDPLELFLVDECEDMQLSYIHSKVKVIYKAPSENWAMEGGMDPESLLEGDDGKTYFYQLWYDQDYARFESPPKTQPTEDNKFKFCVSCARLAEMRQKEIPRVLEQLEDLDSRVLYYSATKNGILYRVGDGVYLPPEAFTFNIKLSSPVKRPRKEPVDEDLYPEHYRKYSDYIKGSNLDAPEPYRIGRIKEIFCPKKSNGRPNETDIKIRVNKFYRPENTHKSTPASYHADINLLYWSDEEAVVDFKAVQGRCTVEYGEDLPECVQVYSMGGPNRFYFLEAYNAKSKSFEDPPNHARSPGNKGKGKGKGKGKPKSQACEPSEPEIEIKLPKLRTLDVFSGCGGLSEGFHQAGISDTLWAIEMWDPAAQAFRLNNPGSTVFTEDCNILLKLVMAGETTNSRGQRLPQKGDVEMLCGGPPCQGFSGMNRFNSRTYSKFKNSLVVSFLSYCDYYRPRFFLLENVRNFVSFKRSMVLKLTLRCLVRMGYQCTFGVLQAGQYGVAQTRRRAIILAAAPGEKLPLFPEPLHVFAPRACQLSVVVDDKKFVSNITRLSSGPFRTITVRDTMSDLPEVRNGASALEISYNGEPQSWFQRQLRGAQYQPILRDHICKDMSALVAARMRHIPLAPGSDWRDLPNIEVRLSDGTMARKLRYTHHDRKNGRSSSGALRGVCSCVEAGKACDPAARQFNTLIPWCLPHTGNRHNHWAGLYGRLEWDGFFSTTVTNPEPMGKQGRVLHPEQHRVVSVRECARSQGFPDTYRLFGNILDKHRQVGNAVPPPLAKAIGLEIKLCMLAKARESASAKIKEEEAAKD
smiles,measurement,setting,value
"Nc1ncn([C@H]2C[C@H](O)[C@@H](CO)O2)c(=O)n1 [decitabine, 5-aza-2’-deoxycytidine]",LINE-1 repetitive element CpG methylation decrease in PBMC,[1]; decitabine […] (cohort 5) after THU 10 mg/kg 2X/week,approximately 10%
same,LINE-1 CpG methylation decrease in PBMC,[1]; lower decitabine doses (cohorts 1-4),not with lower decitabine doses
same,DNA methylation,[2],decreased DNA methylation
same,viability,[2],did not decrease viability
same,Cmax,[3],≤ 0.74 nM
same,clinical adverse events attributed to decitabine,"[4]; 13 SCD and 5 β-thalassemia intermedia patients, SC decitabine 12-36 weeks",no clinical adverse events attributed to decitabine
same,platelet count increases to,[4]; SCD study of decitabine,> 8e+11 L⁻¹
same,HbF increase from baseline,"[4]; parenteral decitabine 2–3X/week, plateau after 12 weeks, SCD patients without HbF response to hydroxyurea",> 10%
same,platelet count increases to,"[4]; sickle cell study, subcutaneous decitabine",~ 1000 x 10^9/L
same,reticulocyte counts,[5],decreased
same,DNMT1 protein decrease from baseline in PBMC,"DNMT1; decitabine 0.08 mg/kg (cohort 4) after THU 10 mg/kg 2X/week, all patients",approximately 50%
same,DNMT1 protein decrease from baseline in PBMC,"DNMT1; decitabine […] (cohort 5) after THU 10 mg/kg 2X/week, 2 of the 3 patients",> 75%
same,DNMT1 protein decrease from baseline in PBMC,DNMT1; lower decitabine doses (cohorts 1-3),not in patients with lower decitabine doses
same,"total hemoglobin (Hb), peak","[6]; SC 0.2 mg/kg 2x/week for 12 weeks, five patients, baseline 7.88 ± 0.88",9.04 ± 0.77 g/dL
same,Absolute Retic count B/L,"[6]; baseline, per patient",1.65e+11 L⁻¹ and 1.55e+11 L⁻¹ and 1.63e+11 L⁻¹ and 1.96e+11 L⁻¹ and 1.06e+11 L⁻¹
same,Annexin-V RBC B/L,"[6]; baseline, per patient",0% and 2% and 0.6% and 3.4% and 0.8%
same,EPO B/L,"[6]; baseline, per patient",197.8 mIU/ml and 25 mIU/ml and 241.4 mIU/ml and 186 mIU/ml and 86.6 mIU/ml
same,HbF B/L,"[6]; baseline, per patient",7 g/dL and 0.1 g/dL and 2.8 g/dL and 4.8 g/dL and 3.6 g/dL
same,Hemoglobin B/L,"[6]; baseline, per patient",8.8 g/dL and 10.7 g/dL and 6.1 g/dL and 7.8 g/dL and 6 g/dL
same,Indirect Bilirubin B/L,"[6]; baseline, per patient",25.7 µmol/L and 104.3 µmol/L and 89 µmol/L and 33 µmol/L and 20 µmol/L
same,Normochromic Normovolumetric Cells B/L,"[6]; baseline, per patient",36% and 67.4% and 65.4% and 63.9% and 61.2%
same,Serum LDH B/L,"[6]; baseline, per patient",893 U/L and 596 U/L and 458 U/L and 192 U/L and 258 U/L
same,"genotoxicity (erythrocyte micronucleus, VDJ recombination assay)",[6],without erythrocyte micronucleus or VDJ recombination assay evidence of genotoxicity
same,Increases in Hb achieved,[6]; in two of the five patients,≥ 1.5 g/dL
same,Absolute Retic count Nadir,[6]; [11],1.35e+11 L⁻¹ and 1.6e+11 L⁻¹ and 1.16e+11 L⁻¹ and 1.25e+11 L⁻¹ and 7.9e+10 L⁻¹
same,Absolute Retic count Wk 12,[6]; [11],1.35e+11 L⁻¹ and 1.6e+11 L⁻¹ and 1.16e+11 L⁻¹ and 1.45e+11 L⁻¹ and 7.9e+10 L⁻¹
same,Annexin-V RBC Nadir,[6]; [11],0% and 0.1% and 0.4%
same,Annexin-V RBC Wk 12,[6]; [11],0.5% and 0.7% and 0.1% and 2.6% and 1.1%
same,EPO Nadir,[6]; [11],117.2 mIU/ml and 17.1 mIU/ml and 131.4 mIU/ml and 180.7 mIU/ml and 71.5 mIU/ml
same,EPO Wk 12,[6]; [11],117.2 mIU/ml and 24.4 mIU/ml and 238.5 mIU/ml and 340.5 mIU/ml and 71.5 mIU/ml
same,HbF Peak,[6]; [11],7.5 g/dL and 0.7 g/dL and 3.5 g/dL and 5.6 g/dL and 4.1 g/dL
same,HbF Wk 12,[6]; [11],7.1 g/dL and 0.7 g/dL and 3.4 g/dL and 5.6 g/dL and 3.6 g/dL
same,Hemoglobin Peak,[6]; [11],9.4 g/dL and 11.8 g/dL and 7.7 g/dL and 8.7 g/dL and 7.6 g/dL
same,Hemoglobin Wk 12,[6]; [11],9.4 g/dL and 11.8 g/dL and 6.4 g/dL and 8.7 g/dL and 7.5 g/dL
same,Indirect Bilirubin Nadir,[6]; [11],27.4 µmol/L and 83.8 µmol/L and 48 µmol/L and 18 µmol/L and 8 µmol/L
same,Indirect Bilirubin Wk 12,[6]; [11],30.8 µmol/L and 83.8 µmol/L and 48 µmol/L and 33 µmol/L and 10 µmol/L
same,Neutrophil count Nadir,[6]; [11],2.82e+09 L⁻¹ and 2.2e+09 L⁻¹ and 5.2e+09 L⁻¹ and 2.1e+09 L⁻¹ and 4.5e+09 L⁻¹
same,Neutrophil count Wk 12,[6]; [11],4.62e+09 L⁻¹ and 2.2e+09 L⁻¹ and 7.9e+09 L⁻¹ and 1.03e+10 L⁻¹ and 5.7e+09 L⁻¹
same,Normochromic Normovolumetric Cells Peak,[6]; [11],45.9% and 70% and 70.9% and 72.4%
same,Normochromic Normovolumetric Cells Wk 12,[6]; [11],45.9% and 69% and 70.5% and 66.4% and 68.1%
same,Platelet count Peak,[6]; [11],2.96e+11 L⁻¹ and 1.038e+12 L⁻¹ and 1.265e+12 L⁻¹ and 8.01e+11 L⁻¹ and 1.301e+12 L⁻¹
same,Platelet count Wk 12,[6]; [11],2.81e+11 L⁻¹ and 1.038e+12 L⁻¹ and 1.265e+12 L⁻¹ and 7.56e+11 L⁻¹ and 1.301e+12 L⁻¹
same,Serum LDH Nadir,[6]; [11],660 U/L and 541 U/L and 260 U/L and 149 U/L and 204 U/L
same,Serum LDH Wk 12,[6]; [11],660 U/L and 556 U/L and 324 U/L and 167 U/L and 204 U/L
same,testicular cancer occurrence,testicular cancer,0%
same,lethal toxicity,"[7]; decitabine 1.0 mg/kg + THU 167 mg/kg 2X/week for 9 weeks, ref Investigators Brochure",lethal toxicity in eight females and one male
same,"toxicity in bone marrow, lymphoid and testicular tissue","[7]; decitabine 0.2 and 0.4 mg/kg + THU, ref Investigators Brochure",reversible toxicity
same,Cmax,"[7]; low dose 0.2 mg/kg + THU 167 mg/kg oral gavage 2X/week, ref Investigators Brochure",1500 nM
same,Cmax,"[7]; mid dose 0.4 mg/kg + THU 167 mg/kg oral gavage 2X/week, ref Investigators Brochure",2900 nM
same,Cmax,"[7]; mouse, in vivo",8600 nM
same,NOAEL,[7]; ref Investigators Brochure,no NOAEL
same,"decrease of decitabine Cmax and AUC cal,0→180 on day 58 compared to day 1",[7]; ref Investigators Brochure,~ 30%
same,"testicular weight, sperm counts and fertility",[8],"dose-dependent decrease in testicular weight, decline in sperm counts and reduced fertility"
same,cumulative hematologic or non-hematologic toxicities,"[9]; 36 weeks, seven subjects",No cumulative hematologic or non-hematologic toxicities
same,ANC nadir at optimal drug dose,"[9]; IV 0.3 mg/kg/day 5 days/week for 2 weeks, 6-week cycles",> 1500 cells/µL
same,HbF (%) Pre,[9]; [12],3.12 ± 2.75% and 0.8% and 6.8% and 1.4% and 0.6% and 2.9% and 6.2%
same,Total Hemoglobin Pre,[9]; [12],7.32 ± 0.94 g/dL and 6.2 g/dL and 8.2 g/dL and 6.0 g/dL and 7.2 g/dL and 8.0 g/dL and 7.8 g/dL
same,HbF (%) Avg,[9]; [13],13.93 ± 2.35% and 12.40 ± 1.25% and 14.55 ± 1.32% and 12.75 ± 2.28% and 10.80 ± 2.05% and 16.42 ± 2.81% and 16.70 ± 2.55%
same,HbF (%) Max,[9]; [13],18.35 ± 4.46% and 14.4% and 16.3% and 17.2% and 24.6% and 23.2%
same,Total Hemoglobin Avg,[9]; [13],8.81 ± 0.42 g/dL and 9.05 ± 0.48 g/dL and 9.37 ± 0.60 g/dL and 8.34 ± 0.55 g/dL and 8.28 ± 0.52 g/dL and 8.91 ± 0.57 g/dL and 8.92 ± 0.79 g/dL
same,Total Hemoglobin Max,[9]; [13],9.73 ± 0.53 g/dL and 9.6 g/dL and 10.3 g/dL and 9.5 g/dL and 9.0 g/dL and 10.4 g/dL
same,average HbF during the last twenty weeks of treatment,[9]; base-line […] ± 2.75%,13.93 ± 2.35%
same,average maximal HbF during the last twenty weeks of treatment,[9]; base-line […] ± 2.75%,18.35% ± 4.46%
same,"maximal F-cell numbers, average over all 7 subjects",[9],69 ± 10.12%
same,period of neutropenia,[9],1 to 3 days
same,average hemoglobin,"[9]; last 20 weeks, base-line of 7.23 ±2.35 g/dL",8.81 ± 0.42 g/dL
same,average ANC during the last 20 weeks of treatment,"[9]; pretreatment average 4600 ± 1560, in cells/µL (unit assumed)",4200 ± 1350
same,individual maximal F-cell numbers,[9]; range over subjects,58 - 87%
same,HbF% increases by HPLC,HbF; decitabine 0.08 mg/kg and […] (cohorts 4 and 5),increases by HPLC were observed
same,HbF% increases by HPLC,HbF; other decitabine dose levels (cohorts 1-3),not with other decitabine dose levels
same,genes with increased expression,tumor cell lines,0.67%
same,increase of AUClast compared to oral decitabine alone,"[10]; THU co-administration, baboons",approximately 9 fold
same,hematologic or other evidence of cytotoxicity,[10]; oral decitabine 5-10 mg/m^2 + oral THU 400 mg/m^2 2-3X/week up to 8 weeks,did not produce hematologic or other evidence of cytotoxicity
same,Cmax,"[10]; read-out: decitabine Cmax, oral decitabine 100 mg/m^2 + oral THU 400 mg/m^2, in 1 of 7 animals",~200 nM
same,thyroid carcinoma promotion,thyroid carcinoma,"promoted goitrogen induced, but not radiation induced, thyroid carcinoma"
